Assay results as given in patent US9340537B2, “Benzamide derivatives for inhibiting the activity of ABL1, ABL2 and BCR-ABL1” (NOVATIS AG, priority 2012, dated 2016).

Columns and labels:
[1] = tested on: Ba/F3-BCR-ABL1-T315I cells; assay: Proliferation assay Ba/F3-BCR-ABL1-T315I cells; format: cell-based, murine; conditions: Mus musculus, 48 h, read-out: Ba/F3-BCR-ABL1-T315I IC50 [μM]
Ba/F3-BCR-ABL1-WT cells = assay: Proliferation assay Ba/F3-BCR-ABL1-WT cells; format: cell-based, murine; conditions: Mus musculus, 48 h, read-out: Ba/F3-BCR-ABL1-WT IC50 [μM]
ABL1 (64-515) [2] = target: T1, ABL1 (64-515) (Homo sapiens (Human), UniProt P00519); assay: Caliper ABL1 (64-515) microfluidic mobility shift kinase assay; conditions: read-out: Caliper ABL1 (64-515) IC50
ABL1 (64-515) [3] = target: T1, ABL1 (64-515); assay: Radio ABL1 (64-515) radiometric filter-binding kinase assay; format: biochemical; conditions: 20 μM ATP

T1 sequence (P00519 64-515): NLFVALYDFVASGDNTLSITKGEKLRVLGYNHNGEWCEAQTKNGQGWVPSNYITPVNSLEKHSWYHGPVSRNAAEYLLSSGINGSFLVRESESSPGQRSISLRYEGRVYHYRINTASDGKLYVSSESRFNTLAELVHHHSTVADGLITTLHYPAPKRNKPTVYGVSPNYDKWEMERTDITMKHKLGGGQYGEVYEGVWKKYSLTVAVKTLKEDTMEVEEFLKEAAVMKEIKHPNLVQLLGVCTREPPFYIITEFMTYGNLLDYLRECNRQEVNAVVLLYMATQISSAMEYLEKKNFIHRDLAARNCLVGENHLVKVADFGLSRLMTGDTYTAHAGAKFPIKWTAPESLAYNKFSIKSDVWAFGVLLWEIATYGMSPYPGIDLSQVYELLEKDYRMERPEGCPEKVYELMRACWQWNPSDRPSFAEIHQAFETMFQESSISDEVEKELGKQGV

SMILES | IC50 (ABL1 (64-515) [2]) [nM] | IC50 (ABL1 (64-515) [3]) [nM] | IC50 [1] [µM] | IC50 (Ba/F3-BCR-ABL1-WT cells) [µM]
C[C@@]1(O)CCN(c2ncc(C(=O)Nc3ccc(OC(F)(F)F)cc3)cc2-c2ccn[nH]2)C1 [Example 14, (R)-6-(3-Hydroxy-3-methylpyrrolidin-1-yl)-5-(1H-pyrazol-5-yl)-N-(4-(trifluoromethoxy)phenyl)nicotinamide] | – | – | 0.134 | 0.0048
O=C(Nc1ccc(OC(F)(F)Cl)cc1)c1cnc(N2CCNC3(CC3)C2)c(-c2ccn[nH]2)c1 [Example 56, N-(4-(Chlorodifluoromethoxy)phenyl)-5-(1H-pyrazol-5-yl)-6-(4,7-diazaspiro[2.5]octan-7-yl)nicotinamide] | 2.9 | 1 | – | –
CC1(O)CN(c2ncc(C(=O)Nc3ccc(OC(F)(F)F)cc3)cc2-c2ccn[nH]2)C1 [Example 40, 6-(3-Hydroxy-3-methylazetidin-1-yl)-5-(1H-pyrazol-5-yl)-N-(4-(trifluoromethoxy)phenyl)nicotinamide] | 5.3 | 4 | – | –
O=C(Nc1ccc(OC(F)(F)Cl)cc1)c1cnc(N2CCC[C@H](O)C2)c(-c2ccn[nH]2)c1 [Example 86, (S)—N-(4-(Chlorodifluoromethoxy)phenyl)-6-(3-hydroxypiperidin-1-yl)-5-(1H-pyrazol-5-yl)nicotinamide] | 1.5 | 4 | – | –
O=C(Nc1ccc(OC(F)(F)F)cc1)c1cnc(N2CC(CO)C2)c(-c2ccn[nH]2)c1 [Example 39, 6-(3-(Hydroxymethyl)azetidin-1-yl)-5-(1H-pyrazol-5-yl)-N-(4-(trifluoromethoxy)phenyl)nicotinamide] | 4.5 | 3 | – | –
O=C(Nc1ccc(OC(F)(F)F)cc1)c1cnc(N2CCOCC2)c(-c2ccn[nH]2)c1 [Example 18, 6-Morpholino-5-(1H-pyrazol-5-yl)-N-(4-(trifluoromethoxy)phenyl)nicotinamide] | 6.5 | 5 | – | –
Cn1c(C#N)ccc1-c1cc(C(=O)Nc2ccc(OC(F)(F)Cl)cc2)cnc1N1CC[C@@H](O)C1 [Example 47, (R)—N-(4-(Chlorodifluoromethoxy)phenyl)-5-(5-cyano-1-methyl-1H-pyrrol-2-yl)-6-(3-hydroxypyrrolidin-1-yl)nicotinamide] | 1.6 | 0.9 | – | –
CN(C)C1CN(c2ncc(C(=O)Nc3ccc(OC(F)(F)F)cc3)cc2-c2ccn[nH]2)C1 [Example 38, 6-(3-(Dimethylamino)azetidin-1-yl)-5-(1H-pyrazol-5-yl)-N-(4-(trifluoromethoxy)phenyl)nicotinamide] | 1.5 | 8 | – | –
O=C(Nc1ccc(OC(F)(F)F)cc1)c1cnc(N2CCOC(CO)C2)c(-c2ccn[nH]2)c1 (stereo not drawn) [Example 36, 6-(2-(Hydroxymethyl)morpholino)-5-(1H-pyrazol-5-yl)-N-(4-(trifluoromethoxy)phenyl)nicotinamide] | 8.1 | 5 | – | –
Cc1cc(-c2cc(C(=O)Nc3ccc(OC(F)(F)F)cc3)cnc2N2CC(CO)C2)[nH]n1 [Example 42, 6-(3-(Hydroxymethyl)azetidin-1-yl)-5-(3-methyl-1H-pyrazol-5-yl)-N-(4-(trifluoromethoxy)phenyl)nicotinamide] | 18 | 2 | – | –
CN(CCO)c1ncc(C(=O)Nc2ccc(OC(F)(F)Cl)cc2)cc1-c1ccn[nH]1 [Example 23, N-(4-(Chlorodifluoromethoxy)phenyl)-6-((2-hydroxyethyl)(methyl)amino)-5-(1H-pyrazol-5-yl)nicotinamide] | 3.4 | 2.7 | – | –
NC12CC1CN(c1ncc(C(=O)Nc3ccc(OC(F)(F)F)cc3)cc1-c1ccn[nH]1)C2 (stereo not drawn) [Example 33, 6-(1-Amino-3-azabicyclo[3.1.0]hexan-3-yl)-5-(1H-pyrazol-5-yl)-N-(4-(trifluoromethoxy)phenyl)nicotinamide] | 5 | 3 | – | –
CO[C@H]1CN(c2ncc(C(=O)Nc3ccc(OC(F)(F)F)cc3)cc2-c2ccn[nH]2)C[C@@H]1N (relative stereo) [Example 78, 6-(trans-3-Amino-4-methoxypyrrolidin-1-yl)-5-(1H-pyrazol-5-yl)-N-(4-(trifluoromethoxy)phenyl)nicotinamide] | 3.6 | 4 | – | –
O=C(Nc1ccc(SC(F)(F)F)cc1)c1cnc(N2CC[C@@H](O)C2)c(-c2ccc[nH]2)c1 [Example 25, (R)-6-(3-Hydroxypyrrolidin-1-yl)-5-(1H-pyrrol-2-yl)-N-(4-((trifluoromethyl)thio)phenyl)nicotinamide] | 2.6 | 3.7 | – | –
O=C(Nc1ccc(OC(F)(F)Cl)cc1)c1cnc(N2CCN(CCF)CC2)c(-c2ccn[nH]2)c1 [Example 58, N-(4-(Chlorodifluoromethoxy)phenyl)-6-(4-(2-fluoroethyl)piperazin-1-yl)-5-(1H-pyrazol-5-yl)nicotinamide] | 2.4 | 5.7 | – | –

The next lines start with results.

IC50 (ABL1 (64-515) [2]) [nM] | IC50 (ABL1 (64-515) [3]) [nM] | SMILES | IC50 [1] [µM] | IC50 (Ba/F3-BCR-ABL1-WT cells) [µM]
0.2 | 1 | N[C@@H]1[C@H]2CN(c3ncc(C(=O)Nc4ccc(OC(F)(F)Cl)cc4)cc3-c3ccn[nH]3)C[C@@H]12 [Example 55, 6-((1R,5S,6s)-6-Amino-3-azabicyclo[3.1.0]hexan-3-yl)-N-(4-(chlorodifluoromethoxy)phenyl)-5-(1H-pyrazol-5-yl)nicotinamide] | – | –
1.4 | 10 | O=C(Nc1ccc(OC(F)(F)F)cc1)c1cnc(N2C[C@H](CO)[C@@H](O)C2)c(-c2cncs2)c1 (relative stereo) [Example 17, 6-(trans-3-Hydroxy-4-(hydroxymethyl)pyrrolidin-1-yl)-5-(thiazol-5-yl)-N-(4-(trifluoromethoxy)phenyl)nicotinamide] | – | –
< 0.13 | 2 | O=C(Nc1ccc(OC(F)(F)Cl)cc1)c1cnc(N2CC3(CNC3)C2)c(-c2ccn[nH]2)c1 [Example 68, N-(4-(Chlorodifluoromethoxy)phenyl)-5-(1H-pyrazol-5-yl)-6-(2,6-diazaspiro[3.3]heptan-2-yl)nicotinamide] | – | –
< 0.13 | 0.4 | NC[C@H]1CN(c2ncc(C(=O)Nc3ccc(OC(F)(F)Cl)cc3)cc2-c2ccn[nH]2)C[C@H]1O (relative stereo) [Example 80, 6-(cis-3-(Aminomethyl)-4-hydroxypyrrolidin-1-yl)-N-(4-(chlorodifluoromethoxy)phenyl)-5-(1H-pyrazol-5-yl)nicotinamide] | – | –
0.9 | 5.6 | CN(C)C1CN(c2ncc(C(=O)Nc3ccc(OC(F)(F)Cl)cc3)cc2-c2ccn[nH]2)C1 [Example 65, N-(4-(Chlorodifluoromethoxy)phenyl)-6-(3-(dimethylamino)azetidin-1-yl)-5-(1H-pyrazol-5-yl)nicotinamide] | – | –
1.3 | 3 | O=C(Nc1ccc(OC(F)(F)Cl)cc1)c1cnc(N2CCC[C@@H](O)C2)c(-c2ccn[nH]2)c1 [Example 87, (R)—N-(4-(Chlorodifluoromethoxy)phenyl)-6-(3-hydroxypiperidin-1-yl)-5-(1H-pyrazol-5-yl)nicotinamide] | – | –
0.5 | < 0.1 | N#Cc1ccc(-c2cc(C(=O)Nc3ccc(OC(F)(F)F)cc3)ccc2N2C[C@H](O)[C@@H](O)C2)[nH]1 [Example 29, 3-(5-Cyano-1H-pyrrol-2-yl)-4-((3S,4S)-3,4-dihydroxypyrrolidin-1-yl)-N-(4-(trifluoromethoxy)phenyl)benzamide] | – | –
1.4 | 3 | N[C@H]1CN(c2ccc(C(=O)Nc3ccc(OC(F)(F)Cl)cc3)cc2-c2ccn[nH]2)C[C@@H]1O [Example 76, 4-((3S,4S)-3-Amino-4-hydroxypyrrolidin-1-yl)-N-(4-(chlorodifluoromethoxy)phenyl)-3-(1H-pyrazol-5-yl)benzamide] | – | –
1 | 11 | CN(CCO)c1ncc(C(=O)Nc2ccc(SC(F)(F)F)cc2)cc1-c1ccn[nH]1 [Example 26, 6-((2-Hydroxyethyl)(methyl)amino)-5-(1H-pyrazol-5-yl)-N-(4-((trifluoromethyl)thio)phenyl)nicotinamide] | – | –
1.1 | < 3 | Cc1ncc(-c2cc(C(=O)Nc3ccc(OC(F)(F)F)cc3)cnc2N2CC[C@H](CO)C2)s1 [Example 16, (S)-6-(3-(Hydroxymethyl)pyrrolidin-1-yl)-5-(2-methylthiazol-5-yl)-N-(4-(trifluoromethoxy)phenyl)nicotinamide] | – | –
1.4 | < 0.1 | CN(C)[C@H]1CN(c2ncc(C(=O)Nc3ccc(OC(F)(F)Cl)cc3)cc2-c2ccn[nH]2)C[C@@H]1O [Example 53, N-(4-(Chlorodifluoromethoxy)phenyl)-6-((3S,4S)-3-(dimethylamino)-4-hydroxypyrrolidin-1-yl)-5-(1H-pyrazol-5-yl)nicotinamide] | – | –
0.8 | < 3 | O=C(Nc1ccc(OC(F)(F)F)cc1)c1cnc(N2CCCC2)c(-c2ccn[nH]2)c1 [Example 15, 5-(1H-Pyrazol-5-yl)-6-(pyrrolidin-1-yl)-N-(4-(trifluoromethoxy)phenyl)nicotinamide] | – | –
0.7 | 2 | O=C(Nc1ccc(OC(F)(F)Cl)cc1)c1cnc(N2CCC(O)CC2)c(-c2ccn[nH]2)c1 [Example 85, N-(4-(Chlorodifluoromethoxy)phenyl)-6-(4-hydroxypiperidin-1-yl)-5-(1H-pyrazol-5-yl)nicotinamide] | – | –
1.1 | 4.9 | NCC1(F)CCN(c2ncc(C(=O)Nc3ccc(OC(F)(F)Cl)cc3)cc2-c2ccn[nH]2)C1 (stereo not drawn) [Example 51, 6-(3-(Aminomethyl)-3-fluoropyrrolidin-1-yl)-N-(4-(chlorodifluoromethoxy)phenyl)-5-(1H-pyrazol-5-yl)nicotinamide] | – | –
0.7 | 1 | CO[C@H]1CN(c2ncc(C(=O)Nc3ccc(OC(F)(F)Cl)cc3)cc2-c2ccn[nH]2)C[C@@H]1N (relative stereo) [Example 79, 6-(trans-3-Amino-4-methoxypyrrolidin-1-yl)-N-(4-(chlorodifluoromethoxy)phenyl)-5-(1H-pyrazol-5-yl)nicotinamide] | – | –
